What was measured:
PR-B = target: T1, PR-B (Homo sapiens, UniProt P06401); test: PR-B transactivation of PRE2 tk-LUC; format: cell-based; settings: CV-1, 10^-7 M progesterone, FIG. 4A
T1 sequence (P06401 1-933): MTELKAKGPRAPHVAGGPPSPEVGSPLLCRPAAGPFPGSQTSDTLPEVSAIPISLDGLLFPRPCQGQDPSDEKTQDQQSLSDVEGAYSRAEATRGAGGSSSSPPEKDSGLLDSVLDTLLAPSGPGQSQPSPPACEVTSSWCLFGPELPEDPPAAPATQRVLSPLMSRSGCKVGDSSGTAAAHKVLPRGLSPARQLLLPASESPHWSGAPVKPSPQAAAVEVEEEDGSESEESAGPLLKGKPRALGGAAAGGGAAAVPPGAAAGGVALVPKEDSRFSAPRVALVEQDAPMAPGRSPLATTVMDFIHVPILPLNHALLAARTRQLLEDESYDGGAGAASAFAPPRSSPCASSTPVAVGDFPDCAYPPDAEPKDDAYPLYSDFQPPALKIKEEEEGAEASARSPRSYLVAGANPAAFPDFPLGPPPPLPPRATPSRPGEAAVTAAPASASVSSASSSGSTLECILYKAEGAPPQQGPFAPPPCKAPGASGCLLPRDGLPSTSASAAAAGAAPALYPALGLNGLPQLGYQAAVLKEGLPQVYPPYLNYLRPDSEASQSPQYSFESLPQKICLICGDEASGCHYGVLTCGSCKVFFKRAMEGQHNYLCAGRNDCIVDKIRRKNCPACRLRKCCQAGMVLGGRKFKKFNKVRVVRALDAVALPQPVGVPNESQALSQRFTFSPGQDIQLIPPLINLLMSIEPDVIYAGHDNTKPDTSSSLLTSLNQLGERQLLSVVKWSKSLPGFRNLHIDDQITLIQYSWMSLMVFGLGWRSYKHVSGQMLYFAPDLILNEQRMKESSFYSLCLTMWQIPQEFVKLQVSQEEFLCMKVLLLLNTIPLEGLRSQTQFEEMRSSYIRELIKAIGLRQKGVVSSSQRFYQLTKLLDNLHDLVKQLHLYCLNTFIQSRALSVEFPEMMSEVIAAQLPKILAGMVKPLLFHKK
Procedure: FIGS. 4A-4B are a series of graphs showing CV-1 ([…]) or HepG2 (FIG. 4B) cells that were transiently transfected with either […] of phPR-B or phPR-A alone, or phPR-B in the presence of increasing concentrations of phPR-A, together with 5 µg/ml of the PRE2 tk-LUC reporter and 5 µg/ml of pCH110 as an internal control. HeLa cells (FIG. 4C) were transfected with either phPR-B or phPR-A together with 5 µg/ml of the pTAT2950 reporter and 5 µg/ml of pCH110 as an internal control. […] The relative luciferase activity is calculated by dividing the normalized luciferase value at a given point by that obtained in the absence of transfected receptor or ligand. The data shown represent the mean +/- average deviation from the mean of triplicate estimations;
Both reporter plasmids were digested with XhoI and HindIII restriction enzymes and a 6.7 Kb fragment from MMTV-LUC and a 0.12 Kb fragment from PRE2 tk-CAT were isolated and ligated, resulting in a plasmid called PRE2 tk-LUC.
Cells were seeded in 12-well, 96-well or 10 cm tissue culture plates. […] 20 μg of DNA/ml of transfection buffer were used in each transfection reaction. […]

human estrogen receptor = test: ER transcriptional activity on MMTV-ERE-LUC, CV-1 cells, ER co-expressed with PR-A; format: cell-based
Procedure: All values were normalized for transfection efficiency by simultaneous estimation of luciferase and β-galactocidase activities. The relative luciferase activity is calculated by dividing the normalized luciferase value at a given point by that obtained in the absence of transfected receptor or ligand. Data shown represent the mean +/- the average deviation from the mean of triplicate estimations.
Experimental protocols and data calculation are as described in FIG. 11. The experiment detailed above is representative of independent assays (N>3). Data shown represent the mean +/- the average deviation from the mean of triplicate estimations.
Vegeto et al., supra. Cells were plated into 96-well tissue culture plates. The vector DNA was introduced into the CV-1 cells using calcium phosphate coprecipitation as described herein. More specifically, 20 μg of DNA/ml of transfection buffer were used in each transfection. Each transfection mix included 0.5 μg of pRST7hER, 9.5 μg of MMTV-ERE-LUC, 5 μg of pCH110, (which contains the gene for β-galactosidase) as an internal control and 5 μg of PGEM4 DNA as a carrier. Depending on the experiment, 0.1 μg pSVhPR-A or pSVhPR-B and an amount of pSVXV2neo (Dr. Bert O'Malley, Baylor College of Medicine) to bring the total amount of DNA to 20 μg was added. The concentration of pXVhPR-A vector chosen was determined by performing the experiment at several different concentrations of vector, and then using that concentration that was optimal for transcriptional readout. The concentration of pSVhPR-B vector was chosen based upon the amount required to give an identical amount of immunoreactive PR-A and PR-B. After transfections using a Biomek 1000 automated laboratory workstation, the cells were incubated with the precipitate for 6 hours. Cells were washed with PBS and incubated for 40 hours with or without hormones as indicated. Cell extracts were prepared as previously described herein and assayed for luciferase (LUC) and β-galactosidase activities. The Normalized LUC activity was calculated by dividing the raw luciferase (×10^4) units for each point by the β-galactosidase activity [(OD415 nm ×10^5)/time min.] at that point.

SMILES | PR-B transcriptional activity on PRE2 tk-LUC (PR-B) | maximal inhibition of ER activation by 17-β-estradiol (human estrogen receptor; 10 nM progesterone, hPR-A co-expressed, 10^-7 M 17β-estradiol, FIG. 11C) | IC50 (human estrogen receptor; 10^-7 M 17-β-estradiol, read-out: half maximal inhibition (IC50) of ER in the presence of hPR-A) | efficacy compared to the pure anti-estrogen ICI-164,384 (human estrogen receptor; PR-A co-expressed, 100% = 10^-7 M 17-β-estradiol + 10^-6 M ICI-164,384, FIG. 12)
CC(=O)[C@H]1CC[C@H]2[C@@H]3CCC4=CC(=O)CC[C@]4(C)[C@H]3CC[C@]12C [progesterone] | transcriptionally active | 55% |  | 
CC#C[C@]1(O)CC[C@H]2[C@@H]3CCC4=CC(=O)CCC4=C3[C@@H](c3ccc(C(C)=O)cc3)C[C@@]21C [ZK112993] |  |  | 0.5 nM | greater than 80%

Reference: patent US5506102A (priority 1993, dated 1996)
